29 compounds from patent publication US20260226068A1, “IMIDAZOTRIAZINE IL-17A MODULATORS AND USES THEREOF” (DICE ALPHA, INC., priority 2023, published 2026) can be followed below.

One test has as its target T1, IL-17A/A (Homo sapiens, UniProt Q16552).
T1 construct: purchased Genscript Z03228
T1 sequence (Q16552 24-155): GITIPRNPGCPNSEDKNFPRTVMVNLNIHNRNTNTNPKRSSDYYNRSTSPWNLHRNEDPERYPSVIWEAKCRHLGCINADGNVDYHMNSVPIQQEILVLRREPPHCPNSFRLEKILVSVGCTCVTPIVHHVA
Put plainly: IL-17A/A HEK-Blue cell assay (SEAP reporter). Particulars: HEK-Blue IL-17A reporter cells, IL17A/A 5 ng/mL, 20 hours, SEAP read at A630; read-out: HEK-Blue IL17AA (IC50 for IL-17A/A inhibition). Type of test: cell-based. How it is done: (§1) The HEK-Blue IL-17A reporter cell line (Fisher #NC 1408637) was used for cell-based IL-17A/A inhibition assays. Cells were grown and prepared for assays according to the manufacturer's instructions. This cell line consists of HEK 293 cells that were designed to expressed IL-17RA, IL-17RC, and the Act1 adapter molecule, the combination of which, when stimulated by IL-17A/A or IL17A/F activates a […] promoter and drives expression of the recombinant Secreted Alkaline Phosphatase (SEAP) gene. Media from the cells is then added to a development reagent (Quanti-Blue Substrate, Fisher #NC971 1613), and read at A630.
(§2) Compounds were dispensed in DMSO to an empty clear 384-well tissue culture plate in a titration ranging from 10 μM to 27 pM, with DMSO added to every well to a final concentration of […]. Cells were then added to the plate (45 μL/well at a concentration of 280,000 cells/mL). IL17A/A (Genscript #Z03228) or IL17A/F (R&D Systems) was added to the plate to a final concentration of 5 ng/mL and a final well volume of 50 μL. The cells, compound, and IL-17A/A or IL17A/F were then incubated for 20 hours before media was removed for SEAP analysis. The resulting inhibition curve was then analyzed using Dotmatics' integrated 4-parameter fit screening protocol to generate IC50 values.
(§3) Table 2 includes IC50 values for IL-17A/A and IL-17A/F inhibition of selected compounds; with compounds having a IC50 of A<100 nM; B 100-1000 nM; and C>1000 nM.

The next test concerns the target T2, IL-17A/F (Homo sapiens, UniProt Q16552+Q96PD4).
T2 construct: purchased R&D Systems
T2 sequence (Q16552 24-155): T1 sequence (Q16552 24-155)
T2 sequence (Q96PD4 31-163): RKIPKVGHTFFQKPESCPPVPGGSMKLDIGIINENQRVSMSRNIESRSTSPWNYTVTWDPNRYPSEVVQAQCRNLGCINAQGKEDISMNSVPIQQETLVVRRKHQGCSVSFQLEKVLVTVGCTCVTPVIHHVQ
In words: IL-17A/F HEK-Blue cell assay (SEAP reporter). Type of test: cell-based. Particulars: HEK-Blue IL-17A reporter cells, IL17A/F 5 ng/mL, 20 hours, SEAP read at A630; read-out: HEK-Blue IL17AF (IC50 for IL-17A/F inhibition). How it is done:
as §1, §2, §3

pIC50: −log10 of the molar value.

For `CCn1nccc1C(=O)N[C@H](c1cn2nc(CC3C[C@@H](C(F)(F)F)CNC3=O)c(N3CCOCC3)nc2n1)C1CCC(F)(F)CC1` (mixture of isomers) [Compound 19, N-((1S)-(4,4-difluorocyclohexyl)(3-morpholino-2-(((5R)-2-oxo-5-(trifluoromethyl)piperidin-3-yl)methyl)imidazo[1,2-b][1,2,4]triazin-6-yl)methyl)-1-ethyl-1H-pyrazole-5-carboxamide], the results for the pIC50 on IL-17A/A and on IL-17A/F were 6.00 to 7.00 and less than 6.00, respectively.
Take `CCn1nccc1C(=O)N[C@H](c1cn2nc(CC3C[C@@H](C(F)(F)F)CNC3=O)cnc2n1)[C@H]1CC[C@H](C)CC1` (single isomer, unassigned) [Compound 1]: the pIC50 is greater than 7.00 on IL-17A/A and less than 6.00 at IL-17A/F.
On to `CCn1nccc1C(=O)N[C@H](c1cn2nc(CC3C[C@@H](C(F)(F)F)CNC3=O)cnc2n1)[C@H]1CC[C@H](C)CC1` (single isomer, unassigned) [Compound 2], for which the results for the pIC50 on IL-17A/A and on IL-17A/F were 6.00 to 7.00 and less than 6.00, respectively.
Regarding `CCn1nccc1C(=O)N[C@H](c1cn2nc(CC3C[C@@H](C(F)(F)F)CNC3=O)cnc2n1)C1CCC(F)(F)CC1` (single isomer, unassigned) [Compound 4], the pIC50 at IL-17A/A is greater than 7.00; at IL-17A/F, less than 6.00.
The corresponding values for `CCn1nccc1C(=O)N[C@H](c1cn2nc(CC3C[C@@H](C(F)(F)F)CNC3=O)cnc2n1)C1CCC(F)(F)CC1` (single isomer, unassigned) [Compound 5] are 6.00 to 7.00 and less than 6.00.
Regarding `CCn1nccc1C(=O)N[C@H](c1cn2nc(CC3C[C@@H](C(F)(F)F)CNC3=O)c(N3CCOCC3)nc2n1)C1CCC(F)(F)CC1` (single isomer, unassigned) [Compound 17], the figures for the pIC50 at IL-17A/A and on IL-17A/F were greater than 7.00 and 6.00 to 7.00, respectively.
Taken in the same sequence, the figures for `CCn1nccc1C(=O)N[C@H](c1cn2nc(CC3C[C@@H](C(F)(F)F)CNC3=O)c(N3CCOCC3)nc2n1)C1CCC(F)(F)CC1` (single isomer, unassigned) [Compound 18] were greater than 7.00 and less than 6.00.
As for `O=C(N[C@H](c1cn2nc(CC3C[C@@H](C(F)(F)F)CNC3=O)c(N3CCOCC3)nc2n1)C1CCC(F)(F)CC1)c1nonc1C1CC1` (single isomer, unassigned) [Compound 20], the pIC50 on IL-17A/A is greater than 7.00; on IL-17A/F it was less than 6.00.
Regarding `O=C(N[C@H](c1cn2nc(CC3C[C@@H](C(F)(F)F)CNC3=O)c(N3CCOCC3)nc2n1)C1CCC(F)(F)CC1)c1nonc1C1CC1` (single isomer, unassigned) [Compound 21], the pIC50 on IL-17A/A is greater than 7.00; on IL-17A/F, less than 6.00.
Taken in the same sequence, the figures for `CCn1nccc1C(=O)N[C@H](c1cn2nc(CC3C[C@@H](C(F)(F)F)CNC3=O)c(N3CCOCC3)nc2n1)[C@H]1CC[C@H](C)CC1` (single isomer, unassigned) [Compound 22] were greater than 7.00 and 6.00 to 7.00.
Consider `CCn1nccc1C(=O)N[C@H](c1cn2nc(CC3C[C@@H](C(F)(F)F)CNC3=O)c(N3CCOCC3)nc2n1)[C@H]1CC[C@H](C)CC1` (single isomer, unassigned) [Compound 23], for which the pIC50 is greater than 7.00 on IL-17A/A and less than 6.00 on IL-17A/F.
In the case of `CCn1nccc1C(=O)N[C@H](c1cn2nc(C[C@H]3C[C@@H](C(F)(F)F)CNC3=O)cnc2n1)[C@@H]1CCCC(F)(F)C1` (single isomer, unassigned) [Compound 31], the pIC50 at IL-17A/A was 6.00 to 7.00; on IL-17A/F, less than 6.00.
The corresponding values for `O=C(N[C@H](c1cn2nc(C[C@@H]3C[C@@H](C(F)(F)F)CNC3=O)cnc2n1)C1CCC(F)(F)CC1)c1nonc1C1CC1` (single isomer, unassigned) [Compound 33] are 6.00 to 7.00 and less than 6.00.
Take `CCn1nccc1C(=O)N[C@H](c1cn2nc(CC3C[C@@H](C(F)(F)F)CNC3=O)c(N(C)C)nc2n1)C1CCC(F)(F)CC1` (single isomer, unassigned) [Compound 48]: the pIC50 at IL-17A/A is greater than 7.00; on IL-17A/F, 6.00 to 7.00.
Take `CCn1nccc1C(=O)N[C@H](c1cn2nc(CC3C[C@@H](C(F)(F)F)CNC3=O)c(N(C)C)nc2n1)C1CCC(F)(F)CC1` (single isomer, unassigned) [Compound 49]: the results for the pIC50 on IL-17A/A and on IL-17A/F were greater than 7.00 and less than 6.00, respectively.
With `CCn1nccc1C(=O)N[C@H](c1cn2nc(CC3C[C@H](C(F)(F)F)CNC3=O)c(N3CCOCC3)nc2n1)C1CCC(F)(F)CC1` (single isomer, unassigned) [Compound 50], the pIC50 on IL-17A/A was 6.00 to 7.00; at IL-17A/F, less than 6.00.
Regarding `CCn1nccc1C(=O)N[C@H](c1cn2nc(CC3C[C@H](C(F)(F)F)CNC3=O)c(N(C)C)nc2n1)C1CCC(F)(F)CC1` (single isomer, unassigned) [Compound 51], the pIC50 at IL-17A/A was 6.00 to 7.00; on IL-17A/F, less than 6.00.
With `CCn1nccc1C(=O)N[C@H](c1cn2nc(CC3C[C@H](C(F)(F)F)CNC3=O)c(N3CCOCC3)nc2n1)C1CCC(F)(F)CC1` (single isomer, unassigned) [Compound 54], the figures for the pIC50 at IL-17A/A and at IL-17A/F were greater than 7.00 and 6.00 to 7.00, respectively.
The corresponding values for `CCn1nccc1C(=O)N[C@H](c1cn2nc(CC3C[C@H](C(F)(F)F)CNC3=O)c(N(C)C)nc2n1)C1CCC(F)(F)CC1` (single isomer, unassigned) [Compound 55] are greater than 7.00 and 6.00 to 7.00.
Consider `CCn1nccc1C(=O)N[C@H](c1cn2nc(C[C@H]3C[C@@H](C(F)(F)F)CNC3=O)c(C3CCOC3)nc2n1)C1CCC(F)(F)CC1` (single isomer, unassigned) [Compound 61], for which the figures for the pIC50 at IL-17A/A and on IL-17A/F were greater than 7.00 and 6.00 to 7.00, respectively.
For `CCn1nccc1C(=O)N[C@H](c1cn2nc(C[C@H]3C[C@@H](C(F)(F)F)CNC3=O)c(C3CCOC3)nc2n1)C1CCC(F)(F)CC1` (single isomer, unassigned) [Compound 62], the pIC50 at IL-17A/A was greater than 7.00; at IL-17A/F, 6.00 to 7.00.
For `CCn1nccc1C(=O)N[C@H](c1cn2nc(C[C@@H]3CC(F)(F)CNC3=O)cnc2n1)C1CCC(F)(F)CC1` (single isomer, unassigned) [Compound 63], the pIC50 on IL-17A/A was 6.00 to 7.00; on IL-17A/F, less than 6.00.
For `CCn1nccc1C(=O)N[C@H](c1cn2nc(CC3CC(F)(F)CNC3=O)c(N3CCOCC3)nc2n1)C1CCC(F)(F)CC1` (single isomer, unassigned) [Compound 64], the pIC50 at IL-17A/A is greater than 7.00; on IL-17A/F it was less than 6.00.
On to `CCn1nccc1C(=O)N[C@H](c1cn2nc(CC3CC(F)(F)CNC3=O)c(N3CCOCC3)nc2n1)C1CCC(F)(F)CC1` (single isomer, unassigned) [Compound 65], for which the pIC50 was greater than 7.00 at IL-17A/A and less than 6.00 at IL-17A/F.
For `CCn1nccc1C(=O)N[C@H](c1cn2nc(CC3C[C@H](C(F)(F)F)CNC3=O)cnc2n1)C1CCC(F)(F)CC1` (stereo partly drawn) [Compound 14, N—((S)-(4,4-difluorocyclohexyl)(2-(((5S)-2-oxo-5-(trifluoromethyl)piperidin-3-yl)methyl)imidazo[1,2-b][1,2,4]triazin-6-yl)methyl)-1-ethyl-1H-pyrazole-5-carboxamide], the pIC50 on IL-17A/A is 6.00 to 7.00.
For `CCn1nccc1C(=O)N[C@H](c1cn2nc(C[C@H]3C[C@H](C(F)(F)F)CNC3=O)cnc2n1)C1CCC(F)(F)CC1` [Compound 52], the pIC50 at IL-17A/A was 6.00 to 7.00.
The same measure, in the same setting: under `CC(C)n1nccc1C(=O)N[C@H](c1cn2nc(C[C@@H]3C[C@@H](C(F)(F)F)CNC3=O)cnc2n1)C1CCC(F)(F)CC1` [Compound 202] stands 6.00 to 7.00; under `CCn1nccc1C(=O)N[C@H](c1cn2nc(C[C@H]3C[C@@H](C(F)(F)F)CNC3=O)c(C(C)(C)F)nc2n1)C1CCC(F)(F)CC1` [Compound 233, N—((S)-(4,4-difluorocyclohexyl)(3-(2-fluoropropan-2-yl)-2-(((3R,5R)-2-oxo-5-(trifluoromethyl)piperidin-3-yl)methyl)imidazo[1,2-b][1,2,4]triazin-6-yl)methyl)-1-ethyl-1H-pyrazole-5-carboxamide], greater than 7.00.
Turning to `CC(F)(F)C(=O)N[C@H](c1cn2nc(C[C@H]3C[C@@H](C(F)(F)F)CNC3=O)c(C3CCOCC3)nc2n1)C1CCC(F)(F)CC1` [Compound 438, N—((S)-(4,4-difluorocyclohexyl)(2-(((3R,5R)-2-oxo-5-(trifluoromethyl)piperidin-3-yl)methyl)-3-(tetrahydro-2H-pyran-4-yl)imidazo[1,2-b][1,2,4]triazin-6-yl)methyl)-2,2-difluoropropanamide], the pIC50 at IL-17A/A is 6.00 to 7.00.
